# Test results published in patent publication US8188121B2, “Substituted pyridines as antiparasitic AZA teraryl compounds” (The University of North Carolina at Chapel Hill, priority 2005, dated 2012).
# Structures can show the parent of a compound that is named as a salt. Where two headings read alike, the source gives them in different places.
# Assays:
# [1] = test system: Trypanosoma brucei rhodesiense (T. b. r.); assay: In vitro antiprotozoal activity against T. b. r.; assay type: cell-based
# Protocol: (§1) In vitro antiprotozoal activities were measured following established protocols. See Ismail, M. A., et al., J. Med. Chem., 46, 4761-4769 (2003); Stephens, C. E., et al., Bioorg. Med. Chem. Lett., 13, 2065-2069 (2003) (in vitro assay against Leishmania donovani).
# (§2) Testing methods are as described above in Example 17.
# [2] = test system: Plasmodium falciparum (P. f.); assay: In vitro antiprotozoal activity against P. f.; assay type: cell-based
# Protocol: as §1, §2
# [3] = test system: L-6 rat mycoblast cells; assay: cells
# Protocol: as §1, §2
# [4] = test system: STIB 900 strain of Trypanosoma brucei rhodesiense; assay: T. b. r. STIB 900 mouse model; assay type: in vivo; details: for responders at 100 mg/kg / responders at 20 mg/kg: Trypanosoma brucei, 1440 h; for responders at 100 mg/kg: read-out: Cures; for responders at 20 mg/kg: read-out: Cures (converted)
# Protocol: The activities of compounds 20, 18, 21, 48, 23c, 24c, 5, 4, and 10 against the STIB 900 strain of Trypanosoma brucei rhodesiense (T. b. r.) in a mouse model are shown in Table 3. […] Groups of four mice were infected intraperitoneally with 2×10^5 bloodstream forms of T. b. r. STIB 900 which originates from a patient in Tanzania. On days 3, 4, 5, and 6 post-infection the experimental groups were treated with the indicated compound, either by the intraperitoneal route, or for prodrugs, by the oral route. Usually the highest tolerated dose was used. The highest tolerated dose was determined in a pretoxicological experiment.
# Parasitemia of the mice was checked daily up to day 14 post-infection and thereafter 2 times per week up to day 60. One group of mice was not treated and acted as control. Untreated control animals expire between day 7 and 8 post-infection. For relapsing mice, the day of death was recorded and the survival time determined. For the data shown in Table 3, cures reflect the number of mice that survive and are parasite free for 60 days. Survival reflects the average days of survival.
# as §2
# [5] = Trypanosoma brucei, RHODESIENSE, Table 1, k/K = thousand, read-out: T. b. r. IC50
# [6] = Plasmodium falciparum, Table 1, k/K = thousand
# [7] = Rattus norvegicus, L6, read-out: CT IC50
# [8] = 100 mg/kg po, days 3-6 post-infection, average days of survival
# [9] = 100 mg/kg po, days 3-6 post-infection, mice surviving parasite free for 60 days, groups of four
# [10] = 20 mg/kg ip, days 3-6 post-infection, average days of survival
# [11] = 20 mg/kg ip, days 3-6 post-infection, mice surviving parasite free for 60 days, groups of four
# [12] = Table 1, k/K = thousand, read-out: T. b. r. IC50
# [13] = read-out: CT IC50, Table 1, L-6 cells
# [14] = Rattus norvegicus, L6, read-out: CT IC50, Table 1, L-6 cells
# [15] = Table 2, K = thousand, read-out: T. b. r. IC50
compound,measurement,setting,value
"N=C(NO)c1ccc(-c2ccc(-c3ccc(C(=N)NO)o3)cc2)cc1 [Compound 3, N-Hydroxy-5-[4′-(N-hydroxyamidino)-biphenyl-4-yl]-furan-2-carboxamidine]",IC50,[1]; [5],67 µM
same,IC50,[2]; [6],6.6 µM
same,IC50,[3]; [7],106 µM
"CONC(=N)c1ccc(-c2ccc(-c3ccc(C(=N)NOC)o3)cc2)cc1 [Compound 4, N-Methoxy-5-[4′-(N-methoxyamidino)-biphenyl-4-yl]-furan-2-carboxamidine]",IC50,[1]; [5],24 µM
same,IC50,[2]; [6],1.6 µM
same,IC50,[3]; [7],> 206 µM
same,Survival,[4]; [8],29 days
same,responders at 100 mg/kg,[4]; [9],0%
"CC(=O)O.N=C(N)c1ccc(-c2ccc(-c3ccc(C(=N)N)o3)cc2)cc1 [Compound 5, 5-(4′-Amidinobiphenyl-4-yl)-furan-2-carboxamidine acetate salt]",IC50,[1]; [5],0.005 µM
same,IC50,[2]; [6],0.001 µM
same,IC50,[3]; [7],2 µM
same,Survival,[4]; [10],21.25 days
same,responders at 20 mg/kg,[4]; [11],0%
"NC(=NO)c1ccc(-c2ccc(-c3ccc(C(N)=NO)cc3)cc2)cc1 [Compound 18, [1,1′;4′,1″]Terphenyl-4,4″-bis-N-hydroxycarboxamidine]",IC50,[1]; [12],22.8 µM
same,IC50,"[2]; Table 1, k/K = thousand",> 118 µM
same,IC50,[3]; [13],> 212 µM
same,Survival,[4]; [8],24.75 days
same,Cures,[4]; [9],0/4
"CON=C(N)c1ccc(-c2ccc(-c3ccc(C(N)=NOC)cc3)cc2)cc1 [Compound 21, [1,1′;4′,1″]Terphenyl-4,4″-bis-N-methoxycarboxamidine]",IC50,[1]; [5],13.8 µM
same,IC50,[2]; [6],0.371 µM
same,IC50,[3]; [7],118 µM
same,Survival,[4]; [8],20.75 days
same,responders at 100 mg/kg,[4]; [9],0%
"CC(=O)O.N=C(N)c1ccc(-c2ccc(-c3ccc(C(=N)N)cc3)nc2)cc1 [Compound 23c, Phenyl[1,1′]pyridyl[4′,1″]phenyl-4,4″-bis-carboxamidine acetate salt]",IC50,[1]; [12],0.002 µM
same,IC50,"[2]; Table 1, k/K = thousand",0.01 µM
same,IC50,[3]; [13],49.9 µM
same,Survival,[4]; [10],>60 days
same,Cures,[4]; [11],4/4
"NC(=NO)c1ccc(-c2ccc(-c3ccc(C(N)=NO)cc3)c(F)c2)cc1 [Compound 24a, 2′-Fluoro-[1,1′;4′,1″]terphenyl-4,4″-bis-N-hydroxycarboxamidine]",IC50,[1]; [12],> 201 µM
same,IC50,"[2]; Table 1, k/K = thousand",0.925 µM
same,IC50,[3]; [13],29.1 µM
"NC(=NO)c1ccc(-c2ccc(-c3ccc(C(N)=NO)cc3)c(C(F)(F)F)c2)cc1 [Compound 24b, 2′-Trifluoromethyl-[1,1′;4′,1″]terphenyl-4,4″-bis-N-hydroxycarboxamidine]",IC50,[1]; [12],29.9 µM
same,IC50,"[2]; Table 1, k/K = thousand",3.1 µM
same,IC50,[3]; [13],13.3 µM
"N=C(NO)c1ccc(-c2ccc(-c3ccc(C(=N)NO)cc3)nc2)cc1 [Compound 24c, Phenyl[1,1′]pyridyl[4′,1″]phenyl-4,4″-bis-N-hydroxycarboxamidine]",IC50,[1]; [12],9.3 µM
same,IC50,"[2]; Table 1, k/K = thousand",7.6 µM
same,IC50,[3]; [13],> 184 µM
same,Survival,[4]; [8],>35.75 days
same,Cures,[4]; [9],1/4
"CON=C(N)c1ccc(-c2ccc(-c3ccc(C(N)=NOC)cc3)c(F)c2)cc1 [Compound 25a, 2′Fluoro-[1,1′;4′,1″]terphenyl-4,4″-bis-methoxycarboxamidine]",IC50,[1]; [12],> 51.5 µM
same,IC50,"[2]; Table 1, k/K = thousand",4.2 µM
"CON=C(N)c1ccc(-c2ccc(-c3ccc(C(N)=NOC)cc3)c(C(F)(F)F)c2)cc1 [Compound 25b, 2′-Trifluoromethyl-[4′,1′;4′,1″]terphenyl-4,4″-bis-methoxycarboxamidine]",IC50,[1]; [12],36.9 µM
same,IC50,"[2]; Table 1, k/K = thousand",3.8 µM
same,IC50,[3]; [13],42.2 µM
"CONC(=N)c1ccc(-c2ccc(-c3ccc(C(=N)NOC)cc3)nc2)cc1 [Compound 25c, Phenyl[1,1′]pyridyl[4′,1″]phenyl-4,4″-bis-N-methoxycarboxamidine]",IC50,[1]; [12],34.7 µM
same,IC50,"[2]; Table 1, k/K = thousand",3.2 µM
same,IC50,[3]; [13],> 166 µM
"N=C(N)c1ccc(-c2cnc(-c3ccc(C(=N)N)cc3)nc2)cc1 [Compound 27, 2,5-Bis-(4′-amidinophenyl)-pyrimidine]",IC50,[2]; [6],0.0005 µM
same,IC50,[3]; [14],40.9 µM
"CON=C(N)c1ccc(-c2ccc(-c3ccc(C(N)=NOC)nc3)cc2)cn1 [Compound 33, 1,4-Bis-[5′-(N-methoxyamidinopyridin-2′-yl)]phenylene]",IC50,[1]; [12],82.9 µM
same,IC50,"[2]; Table 1, k/K = thousand",1.2 µM
same,IC50,[3]; [13],> 158 µM
"N=C(N)c1ccc(Cc2ccc(-c3ccc(C(=N)N)cc3)nc2)cc1 [Compound 36a, 2-(4′-Amidinophenyl)-5-(4″-amidinobenzyl)pyridine acetate salt]",IC50,[1]; [12],0.041 µM
same,IC50,"[2]; Table 1, k/K = thousand",0.011 µM
same,IC50,[3]; [13],18.1 µM
"NC(=NO)c1ccc(-c2ccc(-c3ccc(C(N)=NO)cc3)c3ccccc23)cc1 [Compound 39, Phenyl[1,1′]naphthyl-[4′,1″]phenyl-4,4″-bis-N-hydroxycarboxamidine]",IC50,[1]; [15],13.4 µM
same,IC50,"[2]; Table 2, K = thousand",9.1 µM
same,IC50,[3],9.4 µM
"CON=C(N)c1ccc(-c2ccc(-c3ccc(C(N)=NOC)cc3)c3ccccc23)cc1 [Compound 40, Phenyl[1,1′]naphthyl-[4′,1″]phenyl-4,4″-bis-N-methoxycarboxamidine]",IC50,[1]; [15],29.5 µM
same,IC50,"[2]; Table 2, K = thousand",3.9 µM
same,IC50,[3],16.2 µM
"CCOC(=O)N=C(N)Nc1ccc(-c2ccc(-c3ccc(NC(N)=NC(=O)OCC)cc3)cc2)cc1 [Compound 50a, 4,4″-Bis(N′-ethoxycarbonyl)-guanidino-[1,1′;4′,1″]terphenyl]",IC50,[1]; [12],142 µM
same,IC50,"[2]; Table 1, k/K = thousand",1.7 µM
same,IC50,[3]; [13],> 181 µM
"CCOC(=O)N=C(NC)Nc1ccc(-c2ccc(-c3ccc(NC(=NC(=O)OCC)NC)cc3)cc2)cc1 [Compound 50b, 4,4″-Bis(N′-ethoxycarbonyl-N″-methyl)-guanidino-[1,1′;4′,1″]terphenyl]",IC50,[1]; [12],7.5 µM
same,IC50,"[2]; Table 1, k/K = thousand",8.9 µM
same,IC50,[3]; [13],5.7 µM
"CCOC(=O)N=C(Nc1ccc(-c2ccc(-c3ccc(NC(=NC(=O)OCC)NC(C)C)cc3)cc2)cc1)NC(C)C [Compound 50c, 4,4″-Bis(N′-ethoxycarbonyl-N″-isopropyl)-guanidino-[1,1′;4′,1″]terphenyl]",IC50,[1]; [12],14.2 µM
same,IC50,"[2]; Table 1, k/K = thousand",4.5 µM
same,IC50,[3]; [13],5.3 µM
"CNC(=N)Nc1ccc(-c2ccc(-c3ccc(NC(=N)NC)cc3)cc2)cc1 [Compound 51a, 4,4″-Bis(N′-methyl)-guanidino-[1,1′;4′,1″]terphenyl]",IC50,[1]; [12],0.018 µM
same,IC50,"[2]; Table 1, k/K = thousand",0.007 µM
same,IC50,[3]; [13],65.1 µM
"N=C(N)Nc1ccc(-c2ccc(-c3ccc(NC(=N)N)cn3)cc2)nc1 [Compound 55, 1,4-Bis-(5′-guanidinopyridin-2′-yl)phenylene hydrochloride salt]",IC50,[1]; [5],0.169 µM
same,IC50,[2]; [6],0.151 µM
same,IC50,[3]; [14],152 µM
"CON=C(N)c1ccc(-c2ccc(-c3ccc(C(N)=NOC)nc3)cc2)cn1 [Compound 68, 1,4-Bis-[2′-(N-methoxyamidinopyridin-5′-yl)]-phenylene hydrochloride salt]",IC50,"[1]; Table 1, k/K = thousand, hydrochloride salt, read-out: T. b. r. IC50",141 µM
same,IC50,"[1]; Table 4, read-out: T. b. IC50",4.57 µM
same,IC50,"[2]; Table 1, k/K = thousand, hydrochloride salt",5.5 µM
same,IC50,[2]; Table 4,0.637 µM
same,IC50,"[3]; read-out: CT IC50, Table 1, L-6 cells, hydrochloride salt",> 194 µM
same,IC50,"[3]; read-out: CT IC50, Table 4, L-6 cells",> 193 µM
"CN(C)CC(=O)ON=C(N)c1ccc(-c2ccc(-c3ccc(C(N)=NOC(=O)CN(C)C)nc3)cc2)cn1 [Compound 69, 1,4-Bis-{2′-[N-(N′,N′-dimethylaminoacetoxy)amidinopyridin-5′-yl]}-phenylene]",Cures,"[4]; 25 mg/kg po, Table 5",0/4
same,Survival,"[4]; 25 mg/kg po, Table 5",28.25 days
"N=C(N)c1ccc(OCCCCCOc2ccc(C(=N)N)cc2)cc1 [pentamidine, reference compound]",Survival,[4]; [10],42.7 days
same,responders at 20 mg/kg,[4]; [11],0%
